In assay [1] the test system is anti-prostaglandin E2 antibody. The assay is described as follows: Prostaglandin-HSA compound microarray, detection with anti-prostaglandin E2 antibody (Example 5). The class given is binding. Conditions: prostaglandin mixed with HSA 0.1 milligram/milliliter, printed on glass slide. The protocol:
The immobilization of prostaglandins, which are bioactive lipids, was verified. In this example, as the prostaglandins, prostaglandins A1, A2, A3, B1, B2, B3, D1, D2, D3, E1, E2, E3, F1a, F2a, F3a, G2, H1, H2, I2, I3, J2, K1, and K2 were used. The prostaglandins were mixed with HSA in the solvents and at the final concentrations shown in the table below to form prostaglandin and HSA complexes. It should be noted that HSA was added to achieve a final concentration of 0.1 milligram/milliliter.
Solutions including each prepared prostaglandin and HSA were spotted and printed on glass slides as microdroplets of approximately 2 to 4 nl by using an ultratrace dispensing system (Micro Diagnostic).
The compound microarrays printed with the prostaglandins were immersed in ethanol and shaken for 30 seconds at room temperature. Subsequently, the compound microarrays were immersed in ultrapure water and shaken for 30 seconds at 26° C. The shaking by ultrapure water was performed twice. For solution replacement, the compound microarrays were immersed in solution A for protein microarrays only (Fukushima Protein Factory, Fukushima, Japan) and shaken for about five minutes at 26° C.
(§1) The compound microarrays treated as described above were immersed in Blocking One (Nacalai Tesque, Kyoto, Japan) and shaken for one hour at 26° C. Subsequently, the compound microarrays were immersed in solution A for protein microarrays only and shaken for about five minutes at 26° C.
Using a solution obtained by adding 1/4000 volume of Goat Reference Antibody Mixture I (Fukushima Protein Factory) to the primary antibody diluent for protein microarrays only (Fukushima Protein Factory), an anti-prostaglandin E2 antibody (Ab00484-23.0, Absolute Antibody) was diluted to 1 microgram/milliliter.
(§2) Two milliliters of the solution with the diluted primary antibody were added to a P-DE1 cassette for protein microarrays (Fukushima Protein Factory). […]

Assay [2] concerns anti-amoxicillin antibodies. The assay is described as follows: Compound microarray, detection of immobilized compound with anti-amoxicillin antibodies. The format is binding, mouse. The settings on record: concentrations of HSA from 0.5 mM to 0.0005 mM, glass slide. The protocol:
(§3) Further, compounds of bovine serum albumin (BSA) covalently bonded to these 14 compounds in advance (Imgen BioSciences) were printed on glass slides as control samples for comparison. The compounds mixed with HSA were each dissolved in solution A for protein microarrays only (Fukushima Protein Factory) to a concentration of 0.5 mM. Furthermore, HSA was prepared and mixed with the solutions A including the compounds, bringing the final concentrations to 0.1 micrograms/microliter. It should be noted that the printing of each compound on a glass slide was performed by spotting microdroplets of approximately 2 to 4 nl on the glass slide by using an ultratrace dispensing system (Micro Diagnostic).
(§4) The compound microarrays printed with the compounds were immersed in ethanol and shaken for 30 seconds at room temperature. Subsequently, the compound microarrays were immersed in ultrapure water and shaken for 30 seconds at 26° C. It should be noted that the shaking by ultrapure water was performed twice. For solution replacement, the compound microarrays were immersed in solution A for protein microarrays only (Fukushima Protein Factory, Fukushima, Japan) and shaken for about five minutes at 26° C.
as §1
Using a solution obtained by adding 1/4000 volume of Goat Reference Antibody Mixture I (Fukushima Protein Factory) to the primary antibody diluent for protein microarrays only (Fukushima Protein Factory), one of eight mouse monoclonal anti-compound antibodies (Table 2) was diluted to 1 microgram/milliliter.
as §2

Assay [3] concerns anti-ampicillin antibodies. The assay is described as follows: Compound microarray, detection of immobilized compound with anti-ampicillin antibodies. The class given is binding, mouse. Conditions: compound 0.5 mM mixed with HSA 0.1 micrograms/microliter, printed on glass slide.
Excerpt: as §3, with “Fourteen compounds (amoxicillin, ampicillin, apramycin, bacitracin, cefalexin, ceftazidime, cloxacillin, gentamicin, hygromycin B, neomycin, penicillin G, streptomycin, sulfadimidine, and tetracycline) were each mixed with human serum albumin (HSA) (Sigma-Aldrich) and printed on glass slides. Further,” for “Further,”
(§5) The compound microarrays printed with the compounds were immersed in ethanol and shaken for 30 seconds at room temperature. Subsequently, the compound microarrays were immersed in ultrapure water and shaken for 30 seconds at 26° C. […]
(§6) The compound microarrays were dried, centrifuged at 1500 rpm for one minute, and scanned for fluorescence intensity using a GenePix 4000B (Molecular Devices, Calif., USA). […]

Assay [4] concerns anti-penicillin antibodies. The assay is described as follows: Compound microarray, detection with anti-penicillin antibodies (Examples 3 and 4, clone not stated). The class given is binding. Conditions: concentrations of HSA from 0.5 mM to 0.0005 mM, glass slide.
Assay [5] concerns anti-penicillin [P2B9] antibodies. Kind of assay: Compound microarray, detection of immobilized compound with anti-penicillin [P2B9] antibodies. The format is binding, mouse. The settings on record: compound mixed with HSA, printed on glass slide.
Excerpt: as §3, with “Fourteen compounds (amoxicillin, ampicillin, apramycin, bacitracin, cefalexin, ceftazidime, cloxacillin, gentamicin, hygromycin B, neomycin, penicillin G, streptomycin, sulfadimidine, and tetracycline) were each mixed with human serum albumin (HSA) (Sigma-Aldrich) and printed on glass slides. Further,” for “Further,”
as §5, §6

The test system of assay [6] is anti-dihydrosterptomycin [1.BB.891]. Kind of assay: Compound microarray, detection of immobilized compound with anti-dihydrostreptomycin antibody [1.BB.891]. The class given is binding, mouse. The settings on record: compound mixed with HSA, printed on glass slide.
Excerpt: as §3, with “Fourteen compounds (amoxicillin, ampicillin, apramycin, bacitracin, cefalexin, ceftazidime, cloxacillin, gentamicin, hygromycin B, neomycin, penicillin G, streptomycin, sulfadimidine, and tetracycline) were each mixed with human serum albumin (HSA) (Sigma-Aldrich) and printed on glass slides. Further,” for “Further,”
as §5, §6

In assay [7] the test system is anti-streptomycin antibodies. The assay is described as follows: Compound microarray, detection of immobilized compound with anti-streptomycin antibodies. The format is binding, mouse. Conditions: compound mixed with HSA, printed on glass slide.
Excerpt: as §3, with “Fourteen compounds (amoxicillin, ampicillin, apramycin, bacitracin, cefalexin, ceftazidime, cloxacillin, gentamicin, hygromycin B, neomycin, penicillin G, streptomycin, sulfadimidine, and tetracycline) were each mixed with human serum albumin (HSA) (Sigma-Aldrich) and printed on glass slides. Further,” for “Further,”
as §5, §6

The test system of assay [8] is streptomycin/dihydrostreptomycin [CH-2013]. The assay is described as follows: Compound microarray, detection of immobilized compound with streptomycin/dihydrostreptomycin antibody [CH-2013]. The class given is binding, mouse. Conditions: compound mixed with HSA, printed on glass slide.
Excerpt: as §3, with “Fourteen compounds (amoxicillin, ampicillin, apramycin, bacitracin, cefalexin, ceftazidime, cloxacillin, gentamicin, hygromycin B, neomycin, penicillin G, streptomycin, sulfadimidine, and tetracycline) were each mixed with human serum albumin (HSA) (Sigma-Aldrich) and printed on glass slides. Further,” for “Further,”
as §5, §6

In assay [9] the test system is anti-gentamycin antibodies. Kind of assay: Compound microarray, detection of immobilized compound with anti-gentamycin antibodies. The class given is binding, mouse. The method, then:
as §3, §4
The compound microarrays treated as described above were immersed in Blocking One (Nacalai Tesque, Kyoto, Japan) and shaken for one hour at 26° C. […]

Regarding `CCCCC[C@H](O)/C=C/[C@H]1[C@H](O)CC(=O)[C@@H]1C/C=C\CCCC(=O)O` [Prostaglandin E2], in assay [1], the “reaction of the anti-prostaglandin E2 antibody (fluorescence intensity)” value is given as “reacted strongly”.
Still for that read-out and setting: to `CC/C=C\C[C@H](O)/C=C/[C@H]1[C@H](O)CC(=O)[C@@H]1C/C=C\CCCC(=O)O` [Prostaglandin E3] belongs “reacted strongly”.
For `CCCCC[C@H](O)/C=C/[C@@H]1[C@H]2C/C(=C/CCCC(=O)O)O[C@H]2C[C@H]1O` [Prostaglandin I2], the “reaction of the anti-prostaglandin E2 antibody (fluorescence intensity)” value in assay [1] is listed as “reacted strongly”.
With `CC1(C)S[C@@H]2[C@H](NC(=O)[C@H](N)c3ccc(O)cc3)C(=O)N2[C@H]1C(=O)[O-].[Na+]` [amoxicillin sodium], in assay [2], the “concentration of HSA at which the strongest signal was detected” value is on record as 0.05 mM and the “signal intensity versus HSA concentration” value is listed as “tended to be concentration-dependent”.
As to `CC1(C)S[C@@H]2[C@H](NC(=O)[C@H](N)c3ccc(O)cc3)C(=O)N2[C@H]1C(=O)O` [amoxicillin], the “signal intensity versus HSA concentration” value in assay [2] is “increased in an HSA concentration-dependence”.
Regarding `CC1(C)S[C@@H]2[C@H](NC(=O)[C@H](N)c3ccccc3)C(=O)N2[C@H]1C(=O)O` [ampicillin], the “signal (Red Intensity)” value in assay [3] is reported as “strong signal (strong signals (red intensity of 2000 or greater; the same below))”.
Turning to `CC1(C)S[C@@H]2[C@H](NC(=O)Cc3ccccc3)C(=O)N2[C@H]1C(=O)[O-].[Na+]` [penicillin G sodium], in assay [4], the “signal intensity versus HSA concentration” value was “increased in an HSA concentration-dependence”.
For the molecule `CC1(C)S[C@@H]2[C@H](NC(=O)Cc3ccccc3)C(=O)N2[C@H]1C(=O)O` [penicillin G], in assay [5], the “signal (Red Intensity)” value is listed as “weak signal”.
As for `[H]/N=C(/N)N[C@H]1[C@H](O)[C@@H](O)[C@H](O[C@@H]2O[C@@H](C)[C@](O)(C=O)[C@H]2O[C@@H]2O[C@@H](CO)[C@H](O)[C@@H](O)[C@@H]2NC)[C@@H](N/C(N)=N\[H])[C@@H]1O` [streptomycin], the “signal (Red Intensity)” value in assay [6], in assay [7] and in assay [8] was “weak signal” in each case.
Take gentamycin sulfate: the “signal (red intensity)” value in assay [9] (compound 0.5 mM mixed with each immobilizing protein or HSA (0.1 micrograms/microliter), strong only with this antibody) is “strong signal (strong signals (red intensity of 2000 or greater; the same below))”. Further, the “signal intensity versus HSA concentration” value in [9] (concentrations of HSA from 0.5 mM to 0.0005 mM, glass slide) is on record as “increased in an HSA concentration-dependence”.

For the origin of these results see US20230194511A1, “Compound Fixing Method, Detection Method, Screening Method, Substrate Used in Same, Compound Fixing Agent, and Fixing Kit” (priority 2020, published 2023).
